Measured values: the NIST ThermoML archive (doi:10.1021/acs.jced.6b00718)
Numbers after ± are expanded uncertainties.

Assay: xn = mol fraction of the nth substance listed
Details: 101 kPa, Liquid; for viscosity: Falling or rolling sphere viscometry; for mass density: Vibrating tube method; for electrical conductivity: Alternating current cell with electrodes, x2 = 0.1402

CCCC#N [butanenitrile] + CCCC[N+]1(C)CCCC1.O=S(=O)([N-]S(=O)(=O)C(F)(F)F)C(F)(F)F
Details	mass density [kg/m3]	viscosity [mPa·s]
293.15 K, x2 = 0	791.1 ± 1.6	0.88 ± 0.05
293.15 K, x2 = 0.1003	965 ± 4	–
293.15 K, x2 = 0.1009	–	1.51 ± 0.09
293.15 K, x2 = 0.1987	–	2.73 ± 0.18
293.15 K, x2 = 0.1994	1078.7 ± 3.2	–
293.15 K, x2 = 0.3001	1160.1 ± 2.9	–
293.15 K, x2 = 0.3002	–	6.43 ± 0.4
293.15 K, x2 = 0.4	–	8.77 ± 0.54
293.15 K, x2 = 0.4006	1220.4 ± 2.8	–
293.15 K, x2 = 0.4999	1267.7 ± 2.8	–
293.15 K, x2 = 0.5012	–	14.45 ± 0.89
293.15 K, x2 = 0.6	1304.7 ± 2.8	22.39 ± 1.4
293.15 K, x2 = 0.7	1335.1 ± 2.8	33.65 ± 2.1
293.15 K, x2 = 0.8	1360.6 ± 2.8	49.94 ± 3.1
293.15 K, x2 = 0.9	–	73.01 ± 4.5
293.15 K, x2 = 0.9007	1382 ± 2.9	–
298.15 K, x2 = 0	786.4 ± 1.6	0.86 ± 0.05
298.15 K, x2 = 0.1003	960.4 ± 4	–
298.15 K, x2 = 0.1009	–	1.45 ± 0.09
298.15 K, x2 = 0.1987	–	2.53 ± 0.16
298.15 K, x2 = 0.1994	1074.3 ± 3.2	–
298.15 K, x2 = 0.3001	1155.4 ± 2.9	–
298.15 K, x2 = 0.3002	–	5.72 ± 0.35
298.15 K, x2 = 0.4	–	7.81 ± 0.48
298.15 K, x2 = 0.4006	1216.1 ± 2.8	–
298.15 K, x2 = 0.4999	1263.2 ± 2.8	–
298.15 K, x2 = 0.5012	–	12.44 ± 0.77
298.15 K, x2 = 0.6	1300 ± 2.8	18.94 ± 1.2
298.15 K, x2 = 0.7	1330.5 ± 2.8	27.95 ± 1.7
298.15 K, x2 = 0.8	1356 ± 2.8	40.71 ± 2.5
298.15 K, x2 = 0.9	–	58.33 ± 3.6
298.15 K, x2 = 0.9007	1377.5 ± 2.8	–
303.15 K, x2 = 0	781.8 ± 1.6	0.84 ± 0.05
303.15 K, x2 = 0.1003	955.7 ± 4	–
303.15 K, x2 = 0.1009	–	1.37 ± 0.09
303.15 K, x2 = 0.1987	–	2.37 ± 0.15
303.15 K, x2 = 0.1994	1069.6 ± 3.2	–
303.15 K, x2 = 0.3001	1150.8 ± 2.9	–
303.15 K, x2 = 0.3002	–	5.13 ± 0.32
303.15 K, x2 = 0.4	–	7.14 ± 0.44
303.15 K, x2 = 0.4006	1211.4 ± 2.8	–
303.15 K, x2 = 0.4999	1258.6 ± 2.7	–
303.15 K, x2 = 0.5012	–	10.81 ± 0.66
303.15 K, x2 = 0.6	1295.5 ± 2.7	16.2 ± 1
303.15 K, x2 = 0.7	1326 ± 2.8	23.51 ± 1.4
303.15 K, x2 = 0.8	1351.5 ± 2.8	33.68 ± 2.1
303.15 K, x2 = 0.9	–	47.41 ± 2.9
303.15 K, x2 = 0.9007	1373 ± 2.8	–
313.15 K, x2 = 0	772.4 ± 1.6	0.81 ± 0.05
313.15 K, x2 = 0.1003	946.2 ± 4	–
313.15 K, x2 = 0.1009	–	1.25 ± 0.08
313.15 K, x2 = 0.1987	–	2.07 ± 0.13
313.15 K, x2 = 0.1994	1060.1 ± 3.2	–
313.15 K, x2 = 0.3001	1141.4 ± 2.9	–
313.15 K, x2 = 0.3002	–	4.22 ± 0.26
313.15 K, x2 = 0.4	–	5.68 ± 0.35
313.15 K, x2 = 0.4006	1202.1 ± 2.8	–
313.15 K, x2 = 0.4999	1249.3 ± 2.7	–
313.15 K, x2 = 0.5012	–	8.38 ± 0.51
313.15 K, x2 = 0.6	1286.2 ± 2.7	12.18 ± 0.75
313.15 K, x2 = 0.7	1316.8 ± 2.8	17.18 ± 1.1
313.15 K, x2 = 0.8	1342.3 ± 2.8	23.91 ± 1.5
313.15 K, x2 = 0.9	–	32.67 ± 2
313.15 K, x2 = 0.9007	1363.8 ± 2.8	–
323.15 K, x2 = 0	763 ± 1.5	0.78 ± 0.05
323.15 K, x2 = 0.1003	936.8 ± 3.9	–
323.15 K, x2 = 0.1009	–	1.17 ± 0.07
323.15 K, x2 = 0.1987	–	1.84 ± 0.12
323.15 K, x2 = 0.1994	1050.7 ± 3.2	–
323.15 K, x2 = 0.3001	1132.1 ± 2.8	–
323.15 K, x2 = 0.3002	–	3.52 ± 0.22
323.15 K, x2 = 0.4	–	4.62 ± 0.28
323.15 K, x2 = 0.4006	1192.9 ± 2.7	–
323.15 K, x2 = 0.4999	1240.2 ± 2.7	–
323.15 K, x2 = 0.5012	–	6.67 ± 0.41
323.15 K, x2 = 0.6	1277.2 ± 2.7	9.47 ± 0.58
323.15 K, x2 = 0.7	1307.9 ± 2.7	13.04 ± 0.8
323.15 K, x2 = 0.8	1333.3 ± 2.8	17.69 ± 1.1
323.15 K, x2 = 0.9	–	23.59 ± 1.4
323.15 K, x2 = 0.9007	1354.9 ± 2.8	–
333.15 K, x2 = 0	753.5 ± 1.5	0.75 ± 0.05
333.15 K, x2 = 0.1003	927.3 ± 3.9	–
333.15 K, x2 = 0.1009	–	1.12 ± 0.07
333.15 K, x2 = 0.1987	–	1.65 ± 0.1
333.15 K, x2 = 0.1994	1041.1 ± 3.1	–
333.15 K, x2 = 0.3001	1122.9 ± 2.8	–
333.15 K, x2 = 0.3002	–	3.03 ± 0.19
333.15 K, x2 = 0.4	–	3.85 ± 0.24
333.15 K, x2 = 0.4006	1183.7 ± 2.7	–
333.15 K, x2 = 0.4999	1231 ± 2.7	–
333.15 K, x2 = 0.5012	–	5.43 ± 0.33
333.15 K, x2 = 0.6	1268.3 ± 2.7	7.55 ± 0.46
333.15 K, x2 = 0.7	1298.9 ± 2.7	10.2 ± 0.62
333.15 K, x2 = 0.8	1324.1 ± 2.7	13.55 ± 0.83
333.15 K, x2 = 0.9	–	17.71 ± 1.1
333.15 K, x2 = 0.9007	1345.7 ± 2.8	–

Details	electrical conductivity [S/m]
293.2 K	1.69 ± 0.035
299.5 K	1.85 ± 0.038
302.7 K	1.97 ± 0.042
310 K	2.19 ± 0.046
313.7 K	2.3 ± 0.047
324.6 K	2.62 ± 0.053
334 K	2.9 ± 0.059
